Data as given in PubChem BioAssay AID1259411 (Chemical Carcinogenesis Research Information System (CCRIS), 2018).
Activity calls are given as the source filed them. The rule behind the calls is not given here.

Test system: rodent carcinogenicity bioassays, tumor incidence
Experiment: CCRIS carcinogenicity studies
Outline: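 Archive of carcinogenicity, mutagenicity, tumor promotion and tumor inhibition results drawn from journals, NCI reports and other sources, expert-reviewed; covers 1985-2011 and is no longer updated.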

Structure (SMILES): Cc1ccc(N)c(C)c1
- carcinogen call (Species: MOUSE, Strain/Sex: CD-1/FEMALE, Route: ORAL, Tumor Site: Type of Lesion: LUNG): active; positive

Structure (SMILES): C=CC(=C)Cl
- carcinogen call (Species: HAMSTER, Strain/Sex: SYRIAN/FEMALE, Route: INHALATION, Dose: 0, 10, 50 PPM 6 HR/D 5 D/WK FOR 18 MO (STUDY DURATION: 18 MO), Dose: 0, 10, 50 PPM 6 HR/D 5 D/WK FOR 18 MO (STUDY DURATION: 18 MO)): inactive; negative
- carcinogen call (Species: HAMSTER, Strain/Sex: SYRIAN/MALE, Route: INHALATION, Dose: 0, 10, 50 PPM 6HR/D 5 D/WK FOR 18 MO (STUDY DURATION: 18 MO), Dose: 0, 10, 50 PPM 6HR/D 5 D/WK FOR 18 MO (STUDY DURATION: 18 MO)): inactive; negative
- carcinogen call (Species: MOUSE, Strain/Sex: ALBINO/MALE, FEMALE, Route: INHALATION, Dose: 0, 2.9, 19.18, 189 MG/M3 4 HR/D 6 D/WK FOR 7 MO (STUDY DURATION: 8 MO), Dose: 0, 2.9, 19.18, 189 MG/M3 4 HR/D 6 D/WK FOR 7 MO (STUDY DURATION: 8 MO), Tumor Site: Type of Lesion: LUNG: TUMOR): active; positive
- carcinogen call (Species: MOUSE, Strain/Sex: B6C3F1/FEMALE, Route: INHALATION, Dose: 0, 12.8, 32, 80 PPM 6 HR/D 5 D/WK FOR 105 WK (STUDY DURATION: 106 WK), Dose: 0, 12.8, 32, 80 PPM 6 HR/D 5 D/WK FOR 105 WK (STUDY DURATION: 106 WK), Tumor Site: Type of Lesion: LUNG: ALVEOLAR/BRONCHIOLAR ADENOMA, ALVEOLAR/BRONCHIOLAR CARCINOMA, CIRCULATORY SYSTEM: HEMANGIOMA, HEMANGIOSARCOMA, HAR, Tumor Site: Type of Lesion: LUNG: ALVEOLAR/BRONCHIOLAR ADENOMA, ALVEOLAR/BRONCHIOLAR CARCINOMA, CIRCULATORY SYSTEM: HEMANGIOMA, HEMANGIOSARCOMA, HAR): active; positive
- carcinogen call (Species: MOUSE, Strain/Sex: B6C3F1/MALE, Route: INHALATION, Dose: 0, 12.8, 32, 80 PPM 6 HR/D 5 D/WK FOR 105 WK (STUDY DURATION: 106 WK), Dose: 0, 12.8, 32, 80 PPM 6 HR/D 5 D/WK FOR 105 WK (STUDY DURATION: 106 WK), Tumor Site: Type of Lesion: LUNG: ALVEOLAR/BRONCHIOLAR ADENOMA, ALVEOLAR/BRONCHIOLAR CARCINOMA, CIRCULATORY SYSTEM: HEMANGIOSARCOMA, HEMANGIOSARCOMA): active; positive
- carcinogen call (Species: RAT, Strain/Sex: F344/FEMALE, Route: INHALATION, Dose: 0, 12.8, 32, 80 PPM 6 HR/D 5 D/WK FOR 105 WK (STUDY DURATION: 106 WK), Dose: 0, 12.8, 32, 80 PPM 6 HR/D 5 D/WK FOR 105 WK (STUDY DURATION: 106 WK), Tumor Site: Type of Lesion: ORAL CAVITY: SQUAMOUS CELL PAPILLOMA, SQUAMOUS CELL PAPILLOMA OR CARCINOMA, THYROID GLAND: FOLLICULAR CELL ADENOMA OR CA): active; positive
- carcinogen call (Species: RAT, Strain/Sex: F344/MALE, Route: INHALATION, Dose: 0, 12.8, 32, 80 PPM 6 HR/D 5 D/WK FOR 105 WK (STUDY DURATION: 106 WK), Dose: 0, 12.8, 32, 80 PPM 6 HR/D 5 D/WK FOR 105 WK (STUDY DURATION: 106 WK), Tumor Site: Type of Lesion: ORAL CAVITY: SQUAMOUS CELL PAPILLOMA, SQUAMOUS PAPILLOMA OR CARCINOMA, THYROID GLAND: FOLLICULAR CELL ADENOMA OR CARCINO): active; positive
- carcinogen call (Species: RAT, Strain/Sex: WISTAR/FEMALE, Route: INHALATION, Dose: 0, 10, 50 PPM 6 HR/D 5D/WK FOR 24 MO AT 72 WK 73 FEMALE RATS IN LOW DOSE GROUP DIED DUE TO MALFUNCTION IN EXPOSURE APPAR, Dose: 0, 10, 50 PPM 6 HR/D 5D/WK FOR 24 MO AT 72 WK 73 FEMALE RATS IN LOW DOSE GROUP DIED DUE TO MALFUNCTION IN EXPOSURE APPAR): inactive; negative
- carcinogen call (Species: RAT, Strain/Sex: WISTAR/MALE, Route: INHALATION, Dose: 0, 10, 50 PPM 6 HR/D 5D/WK FOR 24 MO AT 72 WK 82 MALE RATS IN LOW DOSE GROUP DIED DUE TO MALFUNCTION IN EXPOSURE APPARAT, Dose: 0, 10, 50 PPM 6 HR/D 5D/WK FOR 24 MO AT 72 WK 82 MALE RATS IN LOW DOSE GROUP DIED DUE TO MALFUNCTION IN EXPOSURE APPARAT): inactive; negative

Structure (SMILES): Brc1c2ccccc2cc2c1ccc1ccccc12
- carcinogen call (Species: MOUSE, Strain/Sex: B6C3F1/MALE, Route: INTRAPERITONEAL, Dose: 0, 1600 NMOL (TOTAL DOSE) ADMINISTERED IN DOSES OF 1/7 WITHIN 24 HR OF BIRTH, 2/7 AT 8 DAYS OF AGE AND 4/7 AT 15 DAYS OF, Tumor Site: Type of Lesion: LIVER: ADENOMA, CARCINOMA): active; positive

Structure (SMILES): O=C(O)C[C@@H]1NC(=O)[C@H](Cc2ccccc2)NC1=O
- carcinogen call (Species: MOUSE, Strain/Sex: SWISS/FEMALE, Route: INTRAVESICULAR, Dose: 0, 4-4.4 MG IN CHOLESTEROL PELLET (STUDY DURATION: 26 WK)): inactive; negative
- carcinogen call (Species: MOUSE, Strain/Sex: SWISS/FEMALE, Route: INTRAVESICULAR, Dose: 0, 4-4.4 MG IN CHOLESTEROL PELLET (STUDY DURATION: 56 WK)): inactive; negative

Structure (SMILES): c1ccc(NNc2ccccc2)cc1
- carcinogen call (Species: MOUSE, Strain/Sex: B6C3F1/FEMALE, Route: ORAL, Dose: 0, 0.004, 0.04% TWA, IN DIET FOR 78 WK (STUDY DURATION: 95-96 WK), Dose: 0, 0.004, 0.04% TWA, IN DIET FOR 78 WK (STUDY DURATION: 95-96 WK), Tumor Site: Type of Lesion: LIVER: HEPATOCELLULAR ADENOMA OR CARCINOMA): active; positive
- carcinogen call (Species: MOUSE, Strain/Sex: B6C3F1/MALE, Route: ORAL, Dose: 0, 0.008, 0.04% TWA, IN DIET FOR 78 WK (STUDY DURATION: 85 WK), Dose: 0, 0.008, 0.04% TWA, IN DIET FOR 78 WK (STUDY DURATION: 85 WK)): inactive; negative
- carcinogen call (Species: RAT, Strain/Sex: F344/FEMALE, Route: ORAL, Dose: 0, 0.004, 0.01% TWA, IN DIET FOR 78 WK (STUDY DURATION: 107-108 WK), Dose: 0, 0.004, 0.01% TWA, IN DIET FOR 78 WK (STUDY DURATION: 107-108 WK), Tumor Site: Type of Lesion: LIVER: NEOPLASTIC NODULE): active; positive
- carcinogen call (Species: RAT, Strain/Sex: F344/MALE, Route: ORAL, Dose: 0, 0.008, 0.03% TWA, IN DIET FOR 78 WK (STUDY DURATION: 106-107 WK), Dose: 0, 0.008, 0.03% TWA, IN DIET FOR 78 WK (STUDY DURATION: 106-107 WK), Tumor Site: Type of Lesion: LIVER: NEOPLASTIC NODULE OR HEPATOCELLULAR CARCINOMA, ADRENAL GLAND: PHEOCHROMOCYTOMA OR MALIGNANT PHEOCHROMOCYTOMA, EAR, Tumor Site: Type of Lesion: LIVER: NEOPLASTIC NODULE OR HEPATOCELLULAR CARCINOMA, ADRENAL GLAND: PHEOCHROMOCYTOMA OR MALIGNANT PHEOCHROMOCYTOMA, EAR): active; positive

Structure (SMILES): CN(N=O)C(=O)N[C@@H](C=O)[C@@H](O)[C@H](O)[C@H](O)CO
- carcinogen call (Species: HAMSTER, Route: INTRAPERITONEAL, INTRAVENOUS, Tumor Site: Type of Lesion: LIVER): active; positive
- carcinogen call (Species: MOUSE, Route: INTRAPERITONEAL, Tumor Site: Type of Lesion: KIDNEY, LUNG, UTERUS, Tumor Site: Type of Lesion: KIDNEY, LUNG, UTERUS): active; positive
- carcinogen call (Species: RAT, Route: INTRAPERITONEAL, Tumor Site: Type of Lesion: KIDNEY, LIVER): active; positive
- carcinogen call (Species: RAT, Route: INTRAVENOUS, Tumor Site: Type of Lesion: KIDNEY): active; positive
- carcinogen call (Species: RAT, Strain/Sex: SHR/MALE, Route: INTRAPERITONEAL, Dose: 0, 37.5, 50, 62.5, 75 MG/KG INJECTED ONCE (STUDY DURATION: 12 MO), Dose: 0, 37.5, 50, 62.5, 75 MG/KG INJECTED ONCE (STUDY DURATION: 12 MO), Tumor Site: Type of Lesion: LIVER: HEPATOMA, KIDNEY: NEPHROBLASTOMA, PANCREATIC ISLETS: TUMOR, Tumor Site: Type of Lesion: LIVER: HEPATOMA, KIDNEY: NEPHROBLASTOMA, PANCREATIC ISLETS: TUMOR): active; positive
- carcinogen call (Species: RAT, Strain/Sex: WISTAR/MALE, Route: INTRAPERITONEAL, Dose: 0, 100, 125, 137.5, 150 MG/KG INJECTED ONCE (STUDY DURATION: 12 M0), Dose: 0, 100, 125, 137.5, 150 MG/KG INJECTED ONCE (STUDY DURATION: 12 M0), Tumor Site: Type of Lesion: LIVER: HEPATOMA, KIDNEY: NEPHROBLASTOMA): active; positive

Structure (SMILES): CCCCC/C=N/N(C)C=O
- carcinogen call (Species: MOUSE, Strain/Sex: SWISS/FEMALE, Route: GAVAGE, Dose: 0, 50, 100 UG/G/BW IN 0.01 ML OF PROPYLENE GLYCOL 1/WK FOR 52 WK (STUDY DURATION: 130 WK), Dose: 0, 50, 100 UG/G/BW IN 0.01 ML OF PROPYLENE GLYCOL 1/WK FOR 52 WK (STUDY DURATION: 130 WK), Tumor Site: Type of Lesion: LUNG: ADENOMA OR ADENOCARCINOMA, LIVER: HEPATOMA OR CARCINOMA): active; positive
- carcinogen call (Species: MOUSE, Strain/Sex: SWISS/MALE, Route: GAVAGE, Dose: 0, 50, 100 UG/G/BW IN 0.01 ML OF PROPYLENE GLYCOL 1/WK FOR 52 WK (STUDY DURATION: 130 WK), Dose: 0, 50, 100 UG/G/BW IN 0.01 ML OF PROPYLENE GLYCOL 1/WK FOR 52 WK (STUDY DURATION: 130 WK), Tumor Site: Type of Lesion: LUNG: ADENOMA AND ADENOCARCINOMA, PREPUTIAL GLAND: SQUAMOUS CELL PAPILLOMA OR SQUAMOUS CELL CARCINOMA OR ADENOMA): active; positive
